Experiments:
[1] = Clearance in mouse at 1 mg/kg, iv; assay type: ADME, organism-based; details: in vivo
[2] = Volume of distribution at steady state in mouse at 1 mg/kg, iv; assay type: ADME, organism-based; details: in vivo, read-out: Vdss
[3] = Half-life in mouse at 1 mg/kg, iv; assay type: ADME, organism-based; details: in vivo
[4] = Cmax in mouse at 10 mg/kg, po; assay type: ADME, organism-based; design: dose 10 mg/kg, route po; details: in vivo
[5] = AUC (0 to last) in mouse at 10 mg/kg, po; assay type: ADME, organism-based; design: time 0 - last, dose 10 mg/kg, route po; details: in vivo
[6] = Oral bioavailability in mouse at 10 mg/kg; assay type: ADME, organism-based; details: in vivo
KARPAS-299 = experiment: cells; details: Homo sapiens
Description: Antiproliferative activity against human KARPAS-299 cells harbouring wild type ALK assessed as reduction in cell viability by Celltitre-Glo luminescent assay

BaF3 [7] = experiment: cells; details: Mus musculus
Description: Antiproliferative activity against mouse BaF3 cells harbouring ALK wild type assessed as reduction in cell viability by Celltitre-Glo luminescent assay

BaF3 [8] = experiment: cells; details: Mus musculus; remark: listed apart in the source
Description: Antiproliferative activity against mouse BaF3 cells harbouring ALK L1196M mutant assessed as reduction in cell viability by Celltitre-Glo luminescent assay

BaF3 [9] = experiment: cells; details: Mus musculus; remark: listed apart in the source
Description: Antiproliferative activity against mouse BaF3 cells harbouring ALK C1156Y mutant assessed as reduction in cell viability by Celltitre-Glo luminescent assay

[10] = Clearance in Balb/c nude mouse at 1 mg/kg, iv; assay type: ADME, organism-based; details: in vivo

SMILES	clearance [1] [mL/min/kg]	Vd [2] [L/kg]	half-life [3] [h]	Cmax [4] [ng/mL]	AUC(0-t) [5] [ng·h/mL]	bioavailability [6] [%]	IC50 (KARPAS-299) [nM]	IC50 (BaF3 [7]) [nM]	IC50 (BaF3 [8]) [nM]	IC50 (BaF3 [9]) [nM]	clearance [10] [mL/min/kg]
COc1cc(N2CCC3(CCNCC3)CC2)ccc1Nc1ncc(Cl)c(Nc2ccccc2P(C)(C)=O)n1	20.1	1.3	3.6	977	1630	18.5	77	–	–	–	–
COc1cc(N2CCC3(CCN(C)CC3)CC2)c(Cl)cc1Nc1ncc(Cl)c(Nc2ccccc2P(C)(C)=O)n1	–	–	–	–	–	–	87	10	12	15	–
COc1cc(N2CCC3(CNC3)C2)ccc1Nc1ncc(Cl)c(Nc2ccccc2P(C)(C)=O)n1	69	3.1	1.1	28.7	27.7	1.2	126	–	–	–	–
COc1cc(N2CCC3(CCN(C)CC3)CC2)c(C)cc1Nc1ncc(Cl)c(Nc2ccccc2P(C)(C)=O)n1	–	–	–	–	–	–	62	–	–	–	–
COc1cc(N2CCC3(CCN(C)CC3)CC2)ccc1Nc1ncc(Cl)c(Nc2ccc(F)cc2P(C)(C)=O)n1	–	–	–	–	–	–	20	8	18	17	–
COc1cc(N2CCC3(CCN(C)CC3)CC2)ccc1Nc1ncc(Cl)c(Nc2ccccc2P(C)(C)=S)n1	–	–	–	–	–	–	30	5	8	12	61

— ChEMBL document CHEMBL5143665, “Discovery and preclinical evaluations of WX-0593, a novel ALK inhibitor targeting crizotinib-resistant mutations” (Bioorg Med Chem Lett, 2022)
